What was measured:
[1] = tested on: Arabidopsis seedlings (anchor roots after RAM excision); assay: ANR formation after root apical meristem excision (ANR-RE); assay type: in vivo
Description: (§1) ANRs were counted in seedlings vertically grown on half strength MS (with 0.5% sucrose +1% agar, 0.5 g/L MES, pH 5.7) media 8 days post-stratification (dps) using a dissection microscope. To investigate ANR formation after root apical meristems (RAM) excision (ANR-RE), RAM of seedlings were excised using sterile scalpels at 5 dps and then grown for another 3 days prior to counting the number of emerged ANRs. RAM of seedlings were excised at 8 dps and then grown for another 3 days prior to counting the number of emerged LRs. For determining the effect of anchorene on lateral roots, the number of emerged lateral roots were counted using a dissection microscope at 8 dps. For primary root length measurements, seedlings were measured using the publicly available ImageJ software (downloaded from rsbweb.nih.gov/ij/) after taking digital photographs. For adventitious root assay, the number of emerged adventitious roots per plant were counted after 5 days of treatment on plates with or without anchorene.
ANR formation under carotenoid-deficient conditions was monitored to determine the role of endogenous carotenoids in ANR development. […] Therefore, ANR formation was monitored after RAM excision (ANR-RE) to stimulate ANR development. ANR measurements were used as an indicator of ANR formation capacity under different conditions. […] Norflurazon (NF) and 2-(4-chlorophenylthio)-triethylamine hydrochloride (CPTA), which block phytoene desaturation and lycopene cyclization, respectively were tested (FIG. 6A). The effect of D15, an inhibitor of CCDs was also investigated. Application of D15 to Arabidopsis seedlings is known to lead to an increase in carotenoid levels.

[2] = tested on: Arabidopsis seedlings (anchor roots); assay: Anchor root (ANR) emergence/formation in seedlings without RAM excision; assay type: in vivo; details: for activity in promoting ANR formation: anchorene isomer and derivatives, concentrations as indicated in FIGS. 3G-H
Description: (§2) Sterilized Col-0 and mutants seeds were kept at 4° C. in darkness for 3 days to stimulate seed germination, and then sown on half strength MSO plates (with 0.5% sucrose +1% agar, 0.5g/L MES, pH 5.7) supplemented with the indicated chemicals as described below or in the Figures. Plates were vertically grown in PERCIVAL® growth chambers under long day (16 h light/8 h dark, 22° C., 60% relative humidity, light density: 4000 LUX) LED white light [HYPERIKON® 16 W LED Light Bulb A21, 16 W (100 W Equivalent), CRI92, 1620 Lumens, 4000K (Daylight Glow)] conditions. Light fluorescence rates were measured using a digital LUX meter (PEAKTECH® 5025).
as §1
Prior to the anchor root (ANR) measurements, seeds from 10 ecotypes (Po-0, Is-0, Wu-0, Col-0, Cvi-0, Hi-0, Ove-0, Sav-0, Ler and Kin-0) were harvested from plants grown in long-day photoperiod conditions (16h light/8 h darkness, 22° C., 60% humidity). Seeds of all 10 ecotypes were surfaced sterilized and incubated in sterile water at 4° C. for 8 days, for uniform germination. Natural ANR emergence and ANRC was measured as described above (Anchor root assays) for each ecotype. 20 μM anchorene was used to test the responses of the Po-0 and Is-0 ecotypes to anchorene.
Excision of the root apical meristems (RAM) triggers ANR formation (FIGS. 3C-D). […] About 9% of control Col-0 seedlings developed ANRs under normal conditions, while approximately 50% formed ANRs upon RAM excision (FIGS. 4B-C). […] Higher anchorene concentrations (10 and 20 μM) enhanced this ratio to 97% and 100%, respectively (FIGS. 4B-C). There was also an increase in the number of seedlings that developed two ANRs from 0% in the untreated control to approximately 80% upon application of 20 μM anchorene (FIGS. 4B-C). Using a wide range of concentrations, a dose-response curve was established in the presence and absence of RAM excision. […] Thus, the promotion of ANRs is not caused by inhibiting primary root growth.

[3] = tested on: Arabidopsis root growth (Col-0 seedlings); assay: Primary root length of Arabidopsis seedlings on treated half MS agar plates; assay type: in vivo; details: 25 μM, 7 dps
Description: β-cyclocitral, β-ionone and D′orenone (β-Apo-13-caroteneone) (FIG. 1A) were purchased from Buchem (Netherlands). Diapo1, Diapo2, Diapo3, Diapo4, Diapo5, and Diapo6 (FIG. 1B) were synthesized by Buchem (Netherlands). Diapo3 was also synthesized together with D6-anchorene and anchorene derivatives according to the protocol of SCHEME 2. Apocarotenoids and diapocarotenoids were dissolved in acetone to make stock solutions (10 mM). For the screening experiments, each chemical was diluted in half strength Murashige and Skoog (MS) media (with 0.5% sucrose+1% agar, 0.5 g/L MES, pH 5.7) to reach indicated concentrations of 25 μM and 5 μM. A stock solution of 10 mM GR24 (Chiralix, Netherlands) was also made by diluting GR24 in acetone. Stock solutions of D15 (100 mM), Norflurazone (5 mM), and CPTA (50 mM) were made in dimethyl sulfoxide (DMSO). For experiments, these compounds were diluted in concentrations of 125 μM D15, 500 nM Norflurazone, or 100 μM CPTA, respectively. 1-Naphthaleneacetic acid (NAA) and N-1-Naphthylphthalamic Acid (NPA) were purchased from Sigma-Aldrich (Germany) and dissolved in water to make 1 mM stock solutions. For NAA and NPA treatments, media containing 0.1 μM NAA and 1 μM NPA were used. Unless otherwise noted, all commercially available compounds were used as provided without further purification.
as §2, with “([…]®” for “(PEAKTECH®”
as §1
Six previously identified or predicted diapocarotenoids with chain lengths ranging from C9 to C15 (Diapo1-6) (FIG. 1B) and 3 apocarotenoids (FIG. 1C) were selected to identify new carotenoid-derived signals involved in root development). These compounds were selected because they are available and stable at ambient conditions. Diapo1 (C9) is the expected product formed upon cleavage of all-trans-β-apo-10′ carotenal. Diapo2 (C10) results from cleaving the C7, C8 and C15, C15′ double bonds in different carotenoids and is produced by cyanobacterial retinal-forming enzymes from Cm-apocarotenoids. Diapo3 (C10) is a structural isomer of Diapo2 and a predicted cleavage product that can be formed by cutting the C11, C12 and C11′, C12′ bonds in almost all plant carotenoids (FIGS. 1A, 1B and 17). Diapo4 (C12) results from cleaving the C7, C8 and C13′, C14′ bonds in many carotenoids, and is formed by the CCD1 from apo-10′-lycopenal.

pDR5::LUC seedlings = assay: Luciferase assay in pDR5::LUC auxin marker line; assay type: in vivo, Arabidopsis; details: 1 μM NF, 20 μM anchorene
Description: Luciferase activity was assayed as previously described. Briefly, 1 mL of 5 mM Potassium Luciferin (Gold Biotechnology®) dissolved in water was directly applied to pDR5:LUC seedlings grown vertically on treated half strength MS plates. The luciferin solution was allowed to dry for 5-10 minutes in the dark, at room temperature. Seedlings were then imaged using a Lumazone™ CA automated Chemiluminescence system. Seven minute exposure times were used.
A pDR5::LUC line, which marks LR prebranch sites, was used to track ANR development. […] ANR primordia initiation was observed as early as 3 dps, in anchorene treated pDR5::LUC and 158 pDR5rev::GFP seedling (FIGS. 5A-C).

pDR5rev::GFP seedlings = assay: Confocal microscopy of pDR5rev::GFP auxin marker line; assay type: in vivo, Arabidopsis; details: single compound, 20 μM anchorene, 1 μM NF
Description: To examine pDR5Rev::GFP fluorescence at the collet region, live seedlings were directly used for laser scanning confocal microscopy (Zeiss LSM 510 microscope) examination.
For fluorescence intensity quantification of pDR5Rev::GFP and pPIN3::PIN3-GFP marker lines, ImageJ software (rsbweb.nih.gov/ij/) was used after taking confocal microscopy photos. All calculations are background subtracted.

[4] = LC-MS quantification of anchorene in Arabidopsis tissues
Description: About 30 mg (30-40 mg) of freeze-dried and ground Arabidopsis seedlings tissues were extracted using 1 mL of acetonitrile with anti-oxidant [0.1% butylated hydroxytoluene (BHT)] for 15 min in an ultrasonic bath (Branson® 5510EDTH, 25° C., 15 min), followed by centrifugation for 8 min at 13000 rpm at 4° C. The collected supernatant was dried using a concentrator (Labconco RapidVap® System). The extract was derivatized (SCHEME 3) with 50 μL of derivatization solution containing 5 mg/mL derivatization reagent (N^2,N^2,N^4,N^4-tetraethyl-6-hydrazineyl-1,3,5-triazine-2,4-diamine) (Chemspace) and 1% formic acid in methanol at 37° C. for 15 min. Then the sample solution was diluted to 150 μL with 1% formic acid in methanol and filtered by using 0.22 μm filter before LC-MS analysis.
The quantitative analysis of derivative anchorene were carried out on HPLC-Q-Trap MS/MS. Chromatographic separation was achieved on an Acquity UPLC CSH C18 column (50×2.1 mm; 1.7 μm; Waters) using a mobile phase consisting of water: acetonitrile (95:5, v:v, A) and pure acetonitrile (B), both containing 0.1% formic acid. A gradient was applied, starting with 10% B and increasing to 40% B over 5 min. Then 15% B was increased
within 10 min followed by an increase of 45% B over 2 min. And then 100% B was maintained for 10 min. To equilibrate the column before the next run, the mobile phase was adjusted back to 10% B in 1 min and this concentration was maintained for 8 min prior to the next sample injection. A flow rate of 0.15 mL/min and a column temperature of 40° C. were maintained throughout the run. The eluent of the column was introduced to the mass spectrometer using turbo spray ion source in positive mode. The injection volume was 10 μL. The conditions of the mass spectrometer were set as following: curtain gas: 30; ion spray voltage: 5 kV; temperature: 400° C.; ion source gas 1: 30; ion source gas 2: 40; declustering potential, 55; entrance potential: 10; collision energy: 25; collision cell exit potential: 10. […]

[5] = 1 μM NF, 100 μM CPTA, 150 μM D15, RAM cut at 5 DAG, grown 3 more days

CC1=CC(=O)CC(C)(C)[C@@]1(O)/C=C/C(C)=C\C(=O)O [ABA, abscisic acid]
ANR-RE ([1]; 0.1 and 0.5 μM ABA): did not impact

C\C(=C/C=C/C=C(\C)C(=O)O)C(=O)O [AR di-acid, (2E,4E,6E)-2,7-dimethylocta-2,4,6-trienedioic acid]
activity in promoting ANR formation [2]: inactivity

C\C(=C/C=C/C=C(\C)CO)CO [AR di-alcohol, (2E,4E,6E)-2,7-dimethylocta-2,4,6-triene-1,8-diol]
activity in promoting ANR formation [2]: inactivity

CCOC(=O)/C(C)=C/C=C/C=C(\C)C(=O)OCC [AR di-ethyl ester, diethyl (2E,4E,6E)-2,7-dimethylocta-2,4,6-trienedioate]
activity in promoting ANR formation [2]: inactivity

CCN(CC)CCSc1ccc(Cl)cc1.Cl [CPTA, 2-(4-chlorophenylthio)-triethylamine hydrochloride]
ANR-RE [1, 5]: strongly reduced

CC(/C=C/C=O)=C\C=C\C=O [Diapo1, 10,14′-diapocarotene-10,14′-dial]
inhibition of primary root growth [3]: weak inhibition

C\C(C=O)=C/C(C)=C/C=C/C=O [Diapo2, 8,15-diapocarotene-8,15-dial]
reduction in primary root growth [3]: approximately 80% | ANR formation ([2]; 25 μM (FIGS. 3G-H)): modest increase

C\C(C=O)=C/C(C)=C/C=C/C=C/C=O [Diapo4, 8,14′-diapocarotene-8,14′-dial]
inhibition of primary root growth [3]: weak inhibition

C\C(C=O)=C/C=C/C=C/C=C(C)/C=C(\C)C=O [Diapo5, 8,12′-diapocarotene-8,12′-dial]
reduction in primary root growth [3]: approximately 80%

CC1=C[C@H](O/C=C2/C(=O)O[C@@H]3c4ccccc4C[C@H]23)OC1=O [GR24]
ANR formation (ANR-RE) ([1]; 1 μM GR24): inhibited ANR formation

O=C(O)Cc1cccc2ccccc12 [NAA, 1-Naphthaleneacetic acid]
ANR-RE ([1]; 0.1 μM NAA, 1 μM NPA): greatly increased

CNc1cnn(-c2cccc(C(F)(F)F)c2)c(=O)c1Cl [NF, Norflurazon]
ANR-RE [1, 5]: strongly reduced | LUC signal in the collet (pDR5::LUC seedlings): clear LUC signal was detected | GFP signal at the collet / ANR primordia (pDR5rev::GFP seedlings): No significant reduction | anchorene content of whole seedlings after NF treatment ([4]; 24 hours NF treatment, 2 μM NF): decreases | anchorene content of whole seedlings after NF treatment ([4]; continuous NF treatment): greatly decreases

O=C(O)c1ccccc1C(=O)Nc1cccc2ccccc12 [NPA, N-1-Naphthylphthalamic Acid]
ANR-RE ([1]; 0.1 μM NAA, 1 μM NPA): completely blocked

Source: US11523610B2, “Regulating plant growth using a diapocarotenoid” (King Abdullah University of Science and Technology, priority 2018, dated 2022)
